Earlier results in patent US20260355131A1, “SPRAY-DRIED COMPOSITIONS COMPRISING ADRENERGIC RECEPTOR MODULATORS” (OREXO AB, priority 2023, published 2026).

What was measured:
[1] = in solution
[2] = free acid/base compound

pH below which epinephrine is stable [1]: below 4
optimum pH balancing racemization and oxidation ([1]; Connors et al): 3.0-3.8
aqueous solubility [2]: more limited aqueous solubility
SMILES: CNC[C@H](O)c1ccc(O)c(O)c1 [epinephrine]
